Measured values from patent publication US12527849B2, “Apparatus for determining administration form of a composition of an engineered virus-based nanoparticle for a treatment of an autoimmune condition” (Diamante Srl, priority 2021, dated 2026).

Columns and labels:
IL-1β = assay: Cytokine ELISA in CIA mice, day 60: IL-1β; assay type: in vivo
Excerpt: (§1) With continued reference to FIG. 1, in some embodiments, administration 116 may be done to an animal. As a non-limiting example, the animal may include a mouse, a fish, a rabbit, human, and the like. As a non-limiting example, administration 116 of composition of the engineered virus-based nanoparticle for a treatment of an autoimmune condition may be done to dilute, brown, and non-agouti (DBA) mice based on their susceptibility to collagen-induced arthritis (CIA). Female DBA/1 mice 6 to 8 weeks of age may be maintained under specific pathogen-free conditions. CIA may be induced by the intradermal tail base injection of 100 μg of chicken type II collagen (Sigma-Aldrich) as previously described. Five mice per group may be immunized on days 0 and 21 to induce arthritis. The onset of disease may be confirmed on the day that swelling or erythema may be observed in any paw, typically 4 to 10 days after the second immunization. […] CIA may be assessed using a macroscopic score system based on the visual identification of arthritic limbs. The clinical severity of arthritis may be evaluated as follows: Each mouse may be inspected every 2 to 3 days for three different parameters: (i) swelling of the hind ankle and foot, measured with calipers; (ii) erythema of each leg; and (iii) swelling of the fingers. The RA index for each mouse was expressed as the mean of the three scores from the individual parameters. At the end of the experiment (60 days), we determined the proportion of CD25+Foxp3+ cells in the lymph nodes and measured cytokine titers in the lymph nodes, joints, and serum.
(§2) With continued reference to FIG. 1, in some embodiments, processor 104 may determine critical administration 124 as a function of a cytokine profile and a proportion of CD25^+ Foxp3^+ cells. […] In some embodiments, to quantify cytokines in DBA mice, joint tissues may be pulverized and resuspended in 1 ml of lysis medium per 100-mg joint weight for 60 min at 37′C, followed by centrifugation to remove debris. […]

TNF-α = assay: Cytokine ELISA in CIA mice, day 60: TNF-α; assay type: in vivo
Excerpt: as §1, §2

[1] = joint supernatant, CIA mice, day 60, mean n=3
[2] = lymph node supernatant, CIA mice, day 60, mean n=3
[3] = serum pooled from five CIA mice, day 60

With `C[C@@H]1C[C@H]2[C@@H]3CCC4=CC(=O)C=C[C@]4(C)[C@@]3(F)[C@@H](O)C[C@]2(C)[C@@]1(O)C(=O)CO` [Dexamethasone, dexamethasone] the “IL-1β J” value (IL-1β; [1]) was 38.43 pg/mL, the “IL-1β LN” value (IL-1β; [2]) was 65.63 pg/mL and the “IL-1β S” value (IL-1β; [3]) was 26.6 pg/mL. For the same compound, the “TNF-α J” value (TNF-α; [1]) was 49.20 pg/mL, the “TNF-α LN” value (TNF-α; [2]) was 107.90 pg/mL and the “TNF-α S” value (TNF-α; [3]) was 24.2 pg/mL.
